According to paper PMC5432616, “Oligomeric State and Thermal Stability of Apo- and Holo- Human Ornithine δ-Aminotransferase” (The Protein Journal, 2017):
Where a chain is given by its changes, count along the chain named.

Columns and labels:
[1] = target: T1, hOAT (human ornithine δ-aminotransferase) (Homo sapiens, UniProt P04181); test: thermal denaturation followed by CD at […] nm, holo versus apo; assay type: binding; settings: 50 mM Hepes, pH 7.4, 0.5 M NaCl; tetrameric form; covalent (internal aldimine with Lys292)
T1 construct: gene OAT; untagged, pET43a, E. coli BL21(DE3)pLysS; DEAE and Superdex 200; tetramer in equilibrium with dimer, dimer is the functional unit
T1 sequence (P04181 26-439): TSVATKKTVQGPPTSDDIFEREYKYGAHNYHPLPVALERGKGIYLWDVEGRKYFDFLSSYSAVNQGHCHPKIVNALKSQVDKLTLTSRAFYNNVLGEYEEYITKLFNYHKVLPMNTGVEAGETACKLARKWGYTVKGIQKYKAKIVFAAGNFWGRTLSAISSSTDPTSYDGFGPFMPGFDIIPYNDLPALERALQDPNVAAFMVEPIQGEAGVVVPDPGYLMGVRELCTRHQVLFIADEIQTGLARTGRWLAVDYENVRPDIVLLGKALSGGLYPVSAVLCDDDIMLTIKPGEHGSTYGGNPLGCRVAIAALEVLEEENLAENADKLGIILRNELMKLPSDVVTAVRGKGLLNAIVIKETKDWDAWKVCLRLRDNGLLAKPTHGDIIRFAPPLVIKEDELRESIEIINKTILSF

[2] = target: T2, hOAT (human ornithine δ-aminotransferase) (Homo sapiens, UniProt P04181, R217A); test: quenching of intrinsic fluorescence of apoenzyme at […] nm; assay type: binding; settings: read-out: KD(PLP)
T2 construct: gene OAT; untagged, pET43a, E. coli BL21(DE3)pLysS; DEAE and Superdex 200; tetramer in equilibrium with dimer, dimer is the functional unit
T2 sequence (P04181 26-439 R217A): T1 sequence (P04181 26-439) with R192A

For `Cc1ncc(COP(=O)(O)O)c(C=O)c1O` [PLP], which “dTm (apparent Tm, holo minus apo)” value [1] is on record?
The value was ~ 21 °C.

And the Kd [2]?
The Kd was 0.28 ± 0.3 µM.
